# Assay results as given in PMC8319832, “Fine-Tuning of Alkaline Residues on the Hydrophilic Face Provides a Non-toxic Cationic α-Helical Antimicrobial Peptide Against Antibiotic-Resistant ESKAPE Pathogens” (Frontiers in Microbiology, 2021).
# Where a SMILES comes first, the peptide text is derived from it.
# Key:
# E. faecium 898 = experiment: MIC, broth dilution; format: cell-based, Enterococcus faecium; conditions: CLSI broth dilution, MHB, 37°C, 20 h, OD630, at least three repeats; clinical isolate
# From the text: (§1) All experiments were repeated at least three times.
# E. coli 2678 = experiment: MIC, broth dilution; format: cell-based, Escherichia coli; conditions: CLSI broth dilution, MHB, 37°C, 20 h, OD630, at least three repeats; clinical isolate, ESBL
# From the text: as §1
# E. coli 2687 = experiment: MIC, broth dilution; format: cell-based, Escherichia coli; conditions: CLSI broth dilution, MHB, 37°C, 20 h, OD630, at least three repeats; clinical isolate, ESBL
# From the text: as §1
# E. coli ATCC35218 = experiment: MIC, broth dilution; format: cell-based, Escherichia coli; conditions: CLSI broth dilution, MHB, 37°C, 20 h, OD630, at least three repeats; standard strain
# From the text: as §1
# E. coli ATCC25922 = experiment: MIC, broth dilution; format: cell-based, Escherichia coli
# [1] = test system: human red blood cells (hRBCs); experiment: Hemolytic activity determination; format: cell-based; conditions: peptide 100 μg ml^–1; hRBCs in 0.9% sodium chloride, 37°C, 1 h, OD540, 1% Triton X-100 = 100%; three independent experiments
# Procedure, shortened: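 Peptides in two-fold dilutions in 0.9% NaCl (final 12.5–200 μg ml^–1) were incubated with fresh citrated hRBCs for 1 h at 37°C. Supernatant OD540 was normalised to saline (0%) and 1% Triton X-100 (100%) controls to give % hemolysis; three independent experiments.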
# S. aureus 4188 = experiment: MIC, broth dilution; format: cell-based, Staphylococcus aureus; conditions: CLSI broth dilution, MHB, 37°C, 20 h, OD630, at least three repeats; clinical isolate, penicillin-resistant
# From the text: as §1
# S. aureus 1176 = experiment: MIC, broth dilution; format: cell-based, Staphylococcus aureus; conditions: CLSI broth dilution, MHB, 37°C, 20 h, OD630, at least three repeats; clinical isolate
# From the text: as §1
# S. aureus ATCC 25923 = experiment: MIC, broth dilution; format: cell-based, Staphylococcus aureus; conditions: CLSI broth dilution, MHB, 37°C, 20 h, OD630, at least three repeats; standard strain
# From the text: as §1
# S. aureus 9124 = experiment: MIC, broth dilution; format: cell-based, Staphylococcus aureus; conditions: CLSI broth dilution, MHB, 37°C, 20 h, OD630, at least three repeats; clinical isolate, MRSA
# From the text: as §1
# S. aureus ATCC29213 = experiment: MIC, broth dilution; format: cell-based, Staphylococcus aureus
# Procedure, shortened: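 MICs were determined by broth dilution in MHB supplemented with physiological salts (150 mM NaCl, 4.5 mM KCl, 1 mM MgCl2, 2 mM CaCl2, 6 μM NH4HCO3, 4 μM FeCl3). Each experiment was repeated at least three times.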
# P. aeruginosa 9014 = experiment: MIC, broth dilution; format: cell-based, Pseudomonas aeruginosa; conditions: CLSI broth dilution, MHB, 37°C, 20 h, OD630, at least three repeats; clinical isolate, CRE, MDR
# From the text: as §1
# P. aeruginosa 9042 = experiment: MIC, broth dilution; format: cell-based, Pseudomonas aeruginosa; conditions: CLSI broth dilution, MHB, 37°C, 20 h, OD630, at least three repeats; clinical isolate
# From the text: as §1
# healthy ICR mice = experiment: In vivo systemic toxicity; set-up: species or system mouse
# Experimental: Healthy ICR mice (male, 6–8 weeks old, ∼30 g) were used to determine the in vivo systemic toxicity of the peptide ([Chen et al., 2013]). The mice were randomly divided into six groups (n = 10). Five cohorts were intraperitoneally injected with a single dose of 10, 20, 40, 80, and 160 mg kg^–1 body weight of the peptide dissolved in PBS. The mice injected with PBS were used as control. The survival of mice was inspected for 7 days. All surviving mice were euthanized at the end of the experiments.
# For histopathological examination, each group of ICR mice (n = 6) was injected intraperitoneally with PBS or with a single dose of 40 mg kg^–1 body weight of the peptide. At 1, 2, and 7-day post-injection, the mice were euthanized, and the liver, kidney and spleen were collected and fixed with 4% formaldehyde for haematoxylin and eosin staining.
# A. baumannii ATCC 19606 = experiment: MIC, broth dilution; format: cell-based, Acinetobacter baumannii
# Experimental: as §1
# (§2) To study the influence of physiological ions on the antimicrobial activities of the peptides, The MICs of the peptides were also determined against the standard bacterial strains cultured in MHB containing various salts at their physiological concentrations (150 mM NaCl, 4.5 mM KCl, 1 mM MgCl2, 2 mM CaCl2, 6 μM NH4HCO3, and 4 μM FeCl3) ([Ma et al., 2016]).
# P. aeruginosa ATCC 27853 = experiment: MIC, broth dilution; format: cell-based, Pseudomonas aeruginosa
# Experimental: as §1, §2
# [2] = salt sensitivity test, MHB, control without addition of salt ions
# [3] = CLSI broth dilution, MHB, 37°C, 20 h, OD630, at least three repeats, standard strain
structure (smiles),measurement,setting,value
CC[C@H](C)[C@H](NC(=O)[C@H](CCCCN)NC(=O)[C@H](CCCCN)NC(=O)[C@@H](NC(=O)[C@@H](N)Cc1ccccc1)[C@@H](C)CC)C(=O)N[C@@H](C)C(=O)N[C@@H](CCCCN)C(=O)N[C@@H](CC(C)C)C(=O)N[C@@H](CC(C)C)C(=O)N[C@@H](CCCCN)C(=O)N[C@@H](CCCCN)C(=O)N[C@H](C(=O)N[C@@H](Cc1ccccc1)C(N)=O)[C@@H](C)CC [BmKn2-7K] (H-FIKKIAKLLKKIF-NH2),MIC,E. faecium 898,5 µg/mL
same,MIC,E. coli 2678,10 µg/mL
same,MIC,E. coli 2687,10 µg/mL
same,MIC,E. coli ATCC35218,10 µg/mL
same,MIC,"E. coli ATCC25922; CLSI broth dilution, MHB, 6.25 × 10^5 cfu per ml, 37°C, 20 h, OD630, at least three repeats",5 µg/mL
same,MIC,E. coli ATCC25922; MHB with 4 μM FeCl3,20 µg/mL
same,MIC,E. coli ATCC25922; MHB with 6 μM NH4HCO3,20 µg/mL
same,percent hRBC hemolysis,[1],12.2%
same,MIC,S. aureus 4188,2.5 µg/mL
same,MIC,S. aureus 1176,2.5 µg/mL
same,MIC,S. aureus ATCC 25923,5 µg/mL
same,MIC,S. aureus 9124,2.5 µg/mL
same,MIC,S. aureus ATCC29213; MHB with 4 μM FeCl3,5 µg/mL
same,MIC,S. aureus ATCC29213; MHB with 6 μM NH4HCO3,5 µg/mL
same,MIC,S. aureus ATCC29213; MHB with 1 mM MgCl2,5 µg/mL
same,MIC,S. aureus ATCC29213; MHB with 2 mM CaCl2,5 µg/mL
same,MIC,S. aureus ATCC29213; MHB with 4.5 mM KCl,5 µg/mL
same,MIC,S. aureus ATCC29213; MHB with 150 mM NaCl,5 µg/mL
same,MIC,S. aureus ATCC29213; [2],5 µg/mL
same,MIC,P. aeruginosa 9014,5 µg/mL
same,MIC,P. aeruginosa 9042,5 µg/mL
same,"histopathological examination of liver, spleen and kidney","healthy ICR mice; single intraperitoneal dose 40 mg kg^–1 body weight, 1, 2 and 7 days post-treatment, n = 6, haematoxylin-eosin",no necrosis or drug-induced injury was observed
same,mice surviving for 7 days,"healthy ICR mice; single intraperitoneal dose 80 mg kg^–1 body weight, n = 10",60%
same,survival of mice,"healthy ICR mice; single intraperitoneal dose 160 mg kg^–1 body weight, n = 10",died within 24 h
same,survival of mice for 7 days,"healthy ICR mice; single intraperitoneal dose up to 40 mg kg^–1 body weight, n = 10 per cohort",all mice
same,median lethal dose (LD50),"healthy ICR mice; single intraperitoneal injection, ICR mice, 7 days",exceeds 80 mg kg^–1 body weight
same,MIC,A. baumannii ATCC 19606; [3],2.5 µg/mL
same,MIC,A. baumannii ATCC 19606; MHB with 4 μM FeCl3,5 µg/mL
same,MIC,A. baumannii ATCC 19606; MHB with 6 μM NH4HCO3,5 µg/mL
same,MIC,A. baumannii ATCC 19606; MHB with 1 mM MgCl2,2.5 µg/mL
same,MIC,A. baumannii ATCC 19606; MHB with 2 mM CaCl2,2.5 µg/mL
same,MIC,A. baumannii ATCC 19606; MHB with 4.5 mM KCl,5 µg/mL
same,MIC,A. baumannii ATCC 19606; MHB with 150 mM NaCl,2.5 µg/mL
same,MIC,A. baumannii ATCC 19606; [2],2.5 µg/mL
same,MIC,P. aeruginosa ATCC 27853; [3],5 µg/mL
same,MIC,P. aeruginosa ATCC 27853; MHB with 4 μM FeCl3,20 µg/mL
same,MIC,P. aeruginosa ATCC 27853; MHB with 6 μM NH4HCO3,20 µg/mL
